Tests used:
[1] = Cytotoxicity against human HepG2.2.15 cells; format: cell-based, HepG2 2.2.15
Hepatitis B virus [2] = assay: Antiviral activity against hepatitis B virus-infected human HepG2.2.15 cells assessed as inhibition of HBV surface antigen secretion; format: functional, organism-based; conditions: HepG2 2.2.15
Hepatitis B virus [3] = assay: Antiviral activity against hepatitis B virus-infected human HepG2.2.15 cells assessed as inhibition of HBV e antigen secretion; format: functional, organism-based; conditions: HepG2 2.2.15
[4] = Selectivity index, ratio of CC50 for human HepG2.2.15 cells to IC50 for HBV surface antigen secretion; format: functional
[5] = Selectivity index, ratio of CC50 for human HepG2.2.15 cells to IC50 for HBV e antigen secretion; format: functional

Row | Structure (SMILES) | CC50 [1] | IC50 (Hepatitis B virus [2]) | IC50 (Hepatitis B virus [3]) | Ratio CC50/IC50 [4] | Ratio CC50/IC50 [5]
1 | CCC(=O)O[C@@H](C[C@@H](C)C1=C2C[C@H](OC(=O)CC)[C@H]3[C@@]4(C)CCC(=O)C(C)(C)[C@@H]4CC[C@]3(C)[C@@]2(C)CC1)[C@@H](OC(=O)CC)C(C)(C)O | > 1400 µM | > 1400 µM | > 1400 µM |  | 
2 | CCC(=O)O[C@@H](C[C@@H](C)[C@]12CC[C@@]3(C)[C@@]1(C[C@H](OC(=O)CC)[C@H]1[C@@]4(C)CCC(=O)C(C)(C)[C@@H]4CC[C@@]13C)O2)[C@@H](OC(=O)CC)C(C)(C)O | > 1200 µM | > 1200 µM | > 1200 µM |  | 
3 | C=C(C)[C@H](OC(=O)CC)[C@H](C[C@@H](C)C1=C2C[C@H](OC(=O)CC)[C@H]3[C@@]4(C)CCC(=O)C(C)(C)[C@@H]4CC[C@]3(C)[C@@]2(C)CC1)OC(=O)CC | > 1200 µM | > 12000 µM | > 12000 µM |  | 
4 | CC(=O)O[C@@H](C[C@@H](C)C1=C2C[C@H](OC(C)=O)[C@H]3[C@@]4(C)CCC(=O)C(C)(C)[C@@H]4CC[C@]3(C)[C@@]2(C)CC1)[C@@H](OC(C)=O)C(C)(C)O | > 2000 µM | > 2000 µM | > 2000 µM |  | 
5 | C=C(C)[C@H](OC(C)=O)[C@H](C[C@@H](C)[C@]12CC[C@@]3(C)[C@@]1(C[C@H](OC(C)=O)[C@H]1[C@@]4(C)CCC(=O)C(C)(C)[C@@H]4CC[C@@]13C)O2)OC(C)=O | > 2600 µM | 24 µM | 28 µM | >108 | >93
6 | C[C@H](C[C@H](O)[C@@H](O)C(C)(C)O)[C@]12CC[C@@]3(C)[C@@]1(C[C@H](O)[C@H]1[C@@]4(C)CCC(=O)C(C)(C)[C@@H]4CC[C@@]13C)O2 | 430 µM | 45 µM | 1100 µM | 9.6 | 0.39
7 | C[C@H](C[C@H](O)[C@@H](O)C(C)(C)O)C1=C2C[C@H](O)[C@H]3[C@@]4(C)CCCC(C)(C)[C@@H]4CC[C@]3(C)[C@@]2(C)CC1 | < 80 µM | 80 µM | 5100 µM | <1 | <0.016
8 | CC(=O)O[C@@H](C[C@@H](C)[C@]12CC[C@@]3(C)[C@@]1(C[C@H](OC(C)=O)[C@H]1[C@@]4(C)CCC(=O)C(C)(C)[C@@H]4CC[C@@]13C)O2)[C@@H](OC(C)=O)C(C)(C)O | > 2000 µM | > 2000 µM | > 2000 µM |  | 
9 | C[C@H](C[C@H](OC(=O)c1ccccc1)[C@@H](OC(=O)c1ccccc1)C(C)(C)O)C1=C2C[C@H](OC(=O)c3ccccc3)[C@H]3[C@@]4(C)CCC(=O)C(C)(C)[C@@H]4CC[C@]3(C)[C@@]2(C)CC1 | > 1500 µM | > 1500 µM | > 1500 µM |  | 
10 | C=C(C)[C@H](OC(=O)c1ccccc1)[C@H](C[C@@H](C)[C@]12CC[C@@]3(C)[C@@]1(C[C@H](OC(=O)c1ccccc1)[C@H]1[C@@]4(C)CCC(=O)C(C)(C)[C@@H]4CC[C@@]13C)O2)OC(=O)c1ccccc1 | > 1600 µM | > 1600 µM | > 1600 µM |  | 
11 | C[C@H](C[C@H](OC(=O)/C=C/c1ccccc1)[C@@H](OC(=O)/C=C/c1ccccc1)C(C)(C)O)C1=C2C[C@H](OC(=O)/C=C/c3ccccc3)[C@H]3[C@@]4(C)CCC(=O)C(C)(C)[C@@H]4CC[C@]3(C)[C@@]2(C)CC1 | > 1400 µM | > 1400 µM | > 1400 µM |  | 
12 | Cc1ccc(S(=O)(=O)N/N=C2\CC[C@@]3(C)[C@@H](CC[C@@]4(C)[C@H]3[C@@H](O)CC3=C([C@H](C)C[C@H](O)[C@@H](O)C(C)(C)O)CC[C@@]34C)C2(C)C)cc1 | < 29 µM | 29 µM | 29 µM | <1 | <1
13 | C=C(C)[C@H](OC(=O)c1ccccc1)[C@H](C[C@@H](C)C1=C2C[C@H](OC(=O)c3ccccc3)[C@H]3[C@@]4(C)CCC(=O)C(C)(C)[C@@H]4CC[C@]3(C)[C@@]2(C)CC1)OC(=O)c1ccccc1 | > 2300 µM | > 2300 µM | > 2300 µM |  | 
14 | C=C(C)[C@H](OC(=O)CC)[C@H](C[C@@H](C)[C@]12CC[C@@]3(C)[C@@]1(C[C@H](OC(=O)CC)[C@H]1[C@@]4(C)CCC(=O)C(C)(C)[C@@H]4CC[C@@]13C)O2)OC(=O)CC | > 2500 µM | 160 µM | > 2500 µM | >16 | 
15 | CC(C)C(=O)O[C@@H](C[C@@H](C)[C@]12CC[C@@]3(C)[C@@]1(C[C@H](OC(=O)C(C)C)[C@H]1[C@@]4(C)CCC(=O)C(C)(C)[C@@H]4CC[C@@]13C)O2)[C@@H](OC(=O)C(C)C)C(C)(C)O | > 1900 µM | > 1900 µM | > 1900 µM |  | 
16 | C=C(C)[C@H](OC(=O)/C=C/c1ccccc1)[C@H](C[C@@H](C)C1=C2C[C@H](OC(=O)/C=C/c3ccccc3)[C@H]3[C@@]4(C)CCC(=O)C(C)(C)[C@@H]4CC[C@]3(C)[C@@]2(C)CC1)OC(=O)/C=C/c1ccccc1 | > 1800 µM | > 1800 µM | > 1800 µM |  | 
17 | CC(C)C(=O)O[C@@H](C[C@@H](C)C1=C2C[C@H](OC(=O)C(C)C)[C@H]3[C@@]4(C)CCC(=O)C(C)(C)[C@@H]4CC[C@]3(C)[C@@]2(C)CC1)[C@@H](OC(=O)C(C)C)C(C)(C)O | > 2200 µM | 1700 µM | 900 µM | >1.3 | >2.4
18 | C=C(C)[C@H](OC(=O)C(C)C)[C@H](C[C@@H](C)[C@]12CC[C@@]3(C)[C@@]1(C[C@H](OC(=O)C(C)C)[C@H]1[C@@]4(C)CCC(=O)C(C)(C)[C@@H]4CC[C@@]13C)O2)OC(=O)C(C)C | > 1300 µM | > 1300 µM | > 1300 µM |  | 
19 | C=C(C)[C@H](OC(=O)/C=C/c1ccccc1)[C@H](C[C@@H](C)[C@]12CC[C@@]3(C)[C@@]1(C[C@H](OC(=O)/C=C/c1ccccc1)[C@H]1[C@@]4(C)CCC(=O)C(C)(C)[C@@H]4CC[C@@]13C)O2)OC(=O)/C=C/c1ccccc1 | > 1600 µM | > 1600 µM | > 1600 µM |  | 
20 | C[C@H](C[C@H](OC(=O)c1ccccc1)[C@@H](OC(=O)c1ccccc1)C(C)(C)O)[C@]12CC[C@@]3(C)[C@@]1(C[C@H](OC(=O)c1ccccc1)[C@H]1[C@@]4(C)CCC(=O)C(C)(C)[C@@H]4CC[C@@]13C)O2 | > 1700 µM | > 1700 µM | 1100 µM |  | >1.5
21 | C=C(C)[C@H](OC(=O)C(C)C)[C@H](C[C@@H](C)C1=C2C[C@H](OC(=O)C(C)C)[C@H]3[C@@]4(C)CCC(=O)C(C)(C)[C@@H]4CC[C@]3(C)[C@@]2(C)CC1)OC(=O)C(C)C | > 1600 µM | > 1600 µM | > 1600 µM |  | 
22 | C=C(C)[C@H](OC(C)=O)[C@H](C[C@@H](C)C1=C2C[C@H](OC(C)=O)[C@H]3[C@@]4(C)CCC(=O)C(C)(C)[C@@H]4CC[C@]3(C)[C@@]2(C)CC1)OC(C)=O | 520 µM | 28 µM | 29 µM | 18 | 18
23 | C[C@H](C[C@H](OC(=O)/C=C/c1ccccc1)[C@@H](OC(=O)/C=C/c1ccccc1)C(C)(C)O)[C@]12CC[C@@]3(C)[C@@]1(C[C@H](OC(=O)/C=C/c1ccccc1)[C@H]1[C@@]4(C)CCC(=O)C(C)(C)[C@@H]4CC[C@@]13C)O2 | > 1300 µM | > 1300 µM | 1000 µM |  | >1.3
24 | C[C@H](C[C@H](O)[C@@H](O)C(C)(C)O)C1=C2C[C@H](O)[C@H]3[C@@]4(C)CCC(=O)C(C)(C)[C@@H]4CC[C@]3(C)[C@@]2(C)CC1 [ALISOL A] | 62 µM | 39 µM | > 2400 µM | 1.6 | <0.03
